Source: ChEMBL document CHEMBL1126050, “Edward E. Smissman-Bristol-Myers Squibb Award Address. The role of concepts in structure-activity relationship studies of opioid ligands” (1992)

System: Mus musculus
Experiment: Compound was evaluated for antinociceptive potency by subcutaneous administration in mice using the hotplate assay
Format: functional
Details: sc

With `CC1[C@@H]2Cc3ccc(O)cc3[C@@]1(C)CCN2CCc1ccccc1` (some centres undefined) as the compound, how does the ED50 read?
The ED50 was 0.1 mg/kg.

How did the ED50 turn out when `C[C@H]1C2Cc3ccc(O)cc3[C@]1(C)CCN2C` was run?
The ED50 was 2.6 mg/kg.

How did the ED50 turn out when `Oc1cccc([C@@]23CCC[C@@H](C2)N(CCc2ccccc2)CC3)c1` was run?
Its ED50 is 3.99 mg/kg.

`CN1CC[C@]2(c3cccc(O)c3)CCC[C@H]1C2` was tested. Which ED50 did it give?
Its ED50 is 2 mg/kg.
